Results taken from patent US8557746B2, “High throughput screens for small-molecule inhibitors of the nuclear receptor-like pathway regulating multidrug resistance in fungi” (The General Hospital Corporation, priority 2009, dated 2013).
“Also recorded” adds a separate entry of the source.

What was measured:
S. cerevisiae gal11Δ = assay: Drug sensitivity assay on agar, S. cerevisiae GAL11 deletion strain; assay type: cell-based; settings: growth on YPD agar with increasing drug concentration
Method: (§1) Fresh S. cerevisiae colonies were inoculated in 5 ml of YPD or SD selection medium, and grown overnight at 30° C. The cells were diluted to an OD600 of 0.2, and 2 μl were spotted on agar-based solid medium containing an increasing gradient of drugs (for example, ketoconazole, cycloheximide, or 4-NQO) in the agar. The plates were incubated at 30° C. for 2-3 days. Susceptibility of the C. glabrata mutants was tested by spotting serial dilutions of cells onto YPD agar plates supplemented with fluconazole or ketoconazole. The yeast strains were grown overnight at 30° C. in YPD liquid medium. Cells were diluted to an OD600 of 2.0 in PBS, and 4 μl of the cell suspension and tenfold serial dilutions of the cells were spotted onto plates. Growth was assessed after 1 day of incubation at 30° C.

C. glabrata Cggal11AΔ = assay: Drug sensitivity growth assay, C. glabrata CgGAL11A deletion strain; assay type: cell-based; settings: growth assays on YPD plates
Method: as §1

Myc6-Pdr1p = molecular target: T1, Myc6-Pdr1p (Saccharomyces cerevisiae, UniProt P12383); assay: Drug-binding and cold competition assay with 3H-ketoconazole; parameters: species or system S. cerevisiae; settings: for competition of binding of radiolabelled ketoconazole to Pdr1p by unlabelled xenobiotic: unlabelled xenobiotic at 1,000-fold excess of KET
T1 construct: N-terminal Myc-tagged full-length wild-type Pdr1p (Myc6-Pdr1pwt); made in house; host or cells: yeast (S. cerevisiae), immunopurified with anti-Myc 9E10 on Protein A/G beads
Method: (§2) For co-immunoprecipitation, yeast cells were transformed with Myc6-Pdr1pwt and Gal11p-Flag2 (or Gal11pAKIX-Flag2). Cells were washed with 1×PBS after overnight culture in YPD medium, and then cultured in YP for another 24 hr. Cells were then treated with different concentrations of ketoconazole and cycloheximide (or ethanol for vehicle controls) for 1 hr. Yeast cell lysates were extracted in immunoprecipitation buffer (50 mM Tris-HCI, pH 8.0, 140 mM NaCl, 0.1 mM EDTA, 10% glycerol, 0.02% NP-40, 1 mM DTT, 0.25 mM PMSF, 1 mM benzamidine, 0.5 mgml^−1 aprotinin and Protease Inhibitor Cocktail (Complete, Roche)), with or without xenobiotics by vortexing in the presence of glass beads. The Flag-tagged proteins were then immunoprecipitated by adding anti-Flag M2 antibody-beads (Sigma) and incubating for 3 hr with mutating at 4 C. After washing five times with 1 ml of 0.25 M KCl IP buffer, bound proteins were eluted with 0.1 mgml^−1 Flag peptide (Sigma). Xenobiotics at the indicated concentrations were present at all steps of the co-immunoprecipitation, including washing. Immunoblotting was performed according to standard protocols. To immunopurify Myc6-Pdr1pwt or HA-Pdr1pwt, yeast whole-cell extract (in immunoprecipitation buffer) was incubated with anti-Myc (9E10) antibody or anti-HA (F-7) antibody, and a 50% mix of Protein A- and G-Sepharose beads (Amersham) at 4° C. for 3 hr. Beads were washed with IP buffer five times, and used for drug-binding experiments as outlined herein.
Xenobiotic-binding experiments were performed essentially as described (Kapinsky & Lasar, 435 Nature 446-51 (2005)), with some modifications as explained herein. Radiolabelled ketoconazole (KET: [^3H]G), specific radioactivity 10 Ci mmol^−1, was purchased from American Radiolabelled Chemicals. Beads with either immunopurified proteins or GST recombinant proteins were incubated with KET ([^3H]G) in drug-binding buffer (10 mM K2HPO4, 10 mM KH2PO4, pH 7.0, 2 mM EDTA, 50 mM NaCl, 1 mM DTT, 0.5 mM CHAPS, 10% glycerol and protease inhibitors) at 4° C. for 3 hr with mixing in a volume of 500 μl. […]

PDR5 gene = assay: Xenobiotic-induced transcription of Pdr1p/Pdr3p target genes by quantitative real-time RT-PCR; assay type: cell-based; settings: S. cerevisiae, Pdr1p/Pdr3p-dependent, 20 min drug treatment
Method: Yeast cultures were grown overnight with agitation in YPD at 30° C. The next day, cells were pelleted and washed twice with sterilized purified water (Millipore). Cells were then resuspended in 1% yeast extract and 2% peptone (YP) to an optical density (OD600) of 0.8, grown for another 16 hr at 30° C., then treated with different drugs for 20 min for quantitative RT-PCR, or 5 hr for β-galactosidase assay.
Total RNA was extracted from 5 ml of yeast culture using the Qiagen RNeasy MiniKit. Two micrograms of total RNA was used to generate cDNA using the First-Strand cDNA Synthesis Kit (GE Healthcare). The cDNA mix was diluted tenfold, and 2 μl was used for real-time quantitative PCR with SYBR Green (Applied Biosystems) on an ABI Prism 7900HT Sequence Detection System (Applied Biosystems).

C. glabrata = assay: C. elegans liquid killing assay; assay type: in vivo; settings: fluconazole 8 μg/ml; for survival of nematodes infected with wild-type C. glabrata under antifungal treatment: six-day experiment
Method: The C. glabrata strains and lawns were grown and prepared as described previously. Breger, 3 PloS Pathogens, el8 (2007). The liquid medium killing assays were conducted as detailed in Breger, 2007, with a few changes. After the glp-4;sek-I worms were incubated at 25° C. for 2 days, they were washed off the nematode growth medium plates with M9 and transferred to C. glabrata lawns formed on Brain-Heart Infusion broth (Difco) agar plates. The worms were incubated on the lawns for 4 hr at 25° C., then washed off the plates with M9 buffer and allowed to crawl on unneeded Brain-Heart Infusion broth plates to remove yeast cells from their cuticles. Approximately 70-80 worms were then picked to wells in a six-well microtiter dish that contained 2 ml of liquid medium of 79% M9 buffer, 20% Brain-Heart Infusion broth, 10 μgml^−1 cholesterol in ethanol, and 90 μgml^−1 kanamycin, with the addition of 0.25% DMSO or 8 μgml^−1 fluconazole. The plates were incubated at 25° C. overnight and then examined at 24 hr intervals for survival. […] P values were calculated based on the entire six-day experiment with the log rank and Wilcoxon tests performed by STATA 6 statistical software (Stata, College Station, Tex.).

CgPdr1p = assay: Binding of 3H-ketoconazole to immunopurified CgPdr1p; parameters: species or system C. glabrata; settings: immunopurified Myc6-CgPdr1p on beads
Method: as §2, with “Immunoblotting was performed according to standard protocols. To immunopurify Myc6-Pdr1pwt or HA-Pdr1pwt, yeast whole-cell extract (in immunoprecipitation buffer) was incubated with anti-Myc (9E10) antibody or anti-HA (F-7) antibody, and a 50% mix of Protein A- and G-Sepharose beads (Amersham) at 4° C. for 3 hr. Beads were washed with IP buffer five times, and used for drug-binding experiments as outlined herein.” left out
Xenobiotic-binding experiments were performed essentially as described (Kapinsky & Lasar, 435 Nature 446-51 (2005)), with some modifications as explained herein. Radiolabelled ketoconazole (KET: [^3H]G), specific radioactivity 10 Ci mmol^−1, was purchased from American Radiolabelled Chemicals. […]

[1] = test system: S. cerevisiae wild-type cells; assay: High throughput cell viability screen (OD600) with or without ketoconazole; assay type: cell-based; settings: OD600, two-fold dilutions from 30 μg/mL, with ketoconazole
Method: Briefly, S. cerevisiae or C. glabrata wild-type cells are grown to exponential growth phase and added to 384-well plates. Each well contains rich media with either (a) drug of interest or (b) drug of interest with ketoconazole. Serial 2-fold dilutions of compounds are tested to determine concentration-dependent effects upon cell viability. Cells are incubated at 30° C. and optical density (OD600) is measured to determine cell growth. Plates are set up in duplicate and compounds are scored for their ability to inhibit cell growth in the presence or absence of ketoconazole. For S. cerevisiae screening, wild-type inoculum cultures were grown in YPD (1% yeast extract, 2% bacto-peptone, 2% dextrose) at 30° C., 200 rpm overnight. On day 2, these cultures were expanded to log-phase growth in the morning (OD600˜0.500). On day 3, compounds of interest were added to 25 μL of YPD or YPD+10 μM ketoconazole at an initial concentration of 30 μg/mL and set up as 5 two-fold serial dilutions. Log-phase wild-type cultures with an OD600˜0.500 were diluted to an OD600 of 0.005 and added at an equal volume (25 μL) of wild-type cells to wells with compounds +/− ketoconazole. Initial OD600 values were read with a Perkin Elmer EnVision and plates incubated in a moist chamber at 30° C. OD600 was read at 24 hr, 48 hr, 72 hr and 96 hr. […]

T1 sequence (P12383 whole entry): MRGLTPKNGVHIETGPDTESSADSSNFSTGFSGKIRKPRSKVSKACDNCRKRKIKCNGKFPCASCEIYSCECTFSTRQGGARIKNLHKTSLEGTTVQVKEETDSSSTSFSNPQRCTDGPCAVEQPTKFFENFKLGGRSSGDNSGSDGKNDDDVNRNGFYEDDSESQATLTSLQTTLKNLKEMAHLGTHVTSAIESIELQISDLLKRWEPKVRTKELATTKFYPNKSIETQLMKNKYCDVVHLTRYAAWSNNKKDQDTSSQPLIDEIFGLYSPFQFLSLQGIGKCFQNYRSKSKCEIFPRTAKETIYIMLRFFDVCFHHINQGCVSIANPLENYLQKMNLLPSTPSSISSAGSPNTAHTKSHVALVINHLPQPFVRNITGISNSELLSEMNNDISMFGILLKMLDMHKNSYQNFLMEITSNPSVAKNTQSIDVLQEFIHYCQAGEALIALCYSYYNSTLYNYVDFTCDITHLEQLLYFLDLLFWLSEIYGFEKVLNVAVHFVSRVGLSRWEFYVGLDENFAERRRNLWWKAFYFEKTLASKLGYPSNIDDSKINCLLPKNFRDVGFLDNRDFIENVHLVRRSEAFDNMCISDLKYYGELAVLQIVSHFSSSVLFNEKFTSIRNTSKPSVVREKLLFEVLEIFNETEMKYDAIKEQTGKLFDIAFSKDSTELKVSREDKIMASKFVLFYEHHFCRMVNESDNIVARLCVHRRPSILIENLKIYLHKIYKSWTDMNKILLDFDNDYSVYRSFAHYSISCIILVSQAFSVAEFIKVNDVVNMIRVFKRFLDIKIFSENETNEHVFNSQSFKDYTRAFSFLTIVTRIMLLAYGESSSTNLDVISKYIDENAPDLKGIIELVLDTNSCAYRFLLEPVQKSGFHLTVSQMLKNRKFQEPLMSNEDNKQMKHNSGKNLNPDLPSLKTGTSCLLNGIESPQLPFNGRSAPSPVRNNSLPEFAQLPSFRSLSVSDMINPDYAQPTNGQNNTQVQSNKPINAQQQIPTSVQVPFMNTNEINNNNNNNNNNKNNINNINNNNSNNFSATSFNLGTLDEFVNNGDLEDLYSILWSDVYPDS

| Structure (SMILES) | sensitivity of GAL11 deletion strain to toxin/xenobiotic (S. cerevisiae gal11Δ) | sensitivity of CgGAL11A deletion strain to drug (C. glabrata Cggal11AΔ) | competition of binding of radiolabelled ketoconazole to Pdr1p by unlabelled xenobiotic (Myc6-Pdr1p) | induction of expression of drug efflux pump PDR5 and other Pdr1p/Pdr3p target genes (PDR5 gene) | survival of nematodes infected with wild-type C. glabrata under antifungal treatment (C. glabrata) | other results |
| --- | --- | --- | --- | --- | --- | --- |
| O=[N+]([O-])c1cc[n+]([O-])c2ccccc12 [4-nitroquinoline oxide] | striking sensitivity |  |  |  |  |  |
| C[C@@H]1C[C@@H]([C@H](O)CC2CC(=O)NC(=O)C2)C(=O)[C@@H](C)C1 [cycloheximide] | striking sensitivity | markedly increased sensitivity | effectively competed | induced |  |  |
| OC(Cn1cncn1)(Cn1cncn1)c1ccc(F)cc1F [fluconazole] |  | markedly increased sensitivity |  |  | completely resistant; also recorded: death of most nematodes within six days | survival of nematodes infected with Cggal11B or Cgmed1 deletion strains in the presence of antifungal (C. glabrata; Cggal11B or Cgmed1 deletion strains): little difference in survival rates; survival of nematodes infected with Cgpdr1 and Cggal11A deletion strains in the presence of antifungal (C. glabrata): significantly increased survival; survival of nematodes infected with Cgpdr1 and Cggal11A deletion strains in the presence of antifungal (C. glabrata; listed as Fluconazole): increased the lifespan of nematodes |
| CC(=O)N1CCN(c2ccc(OCC3COC(Cn4ccnc4)(c4ccc(Cl)cc4Cl)O3)cc2)CC1 (stereo not drawn) [ketoconazole] | striking sensitivity | markedly increased sensitivity | effectively competed | induced | completely resistant | direct binding of radiolabeled compound to CgPdr1p (CgPdr1p): binds directly; Kd (Myc6-Pdr1p; cold ligand competition, 0.1 μM 3H-KET, Myc6-Pdr1p, read-out: dissociation constant (KD) of binding to immunopurified Pdr1p): ~39 µM |
| CN(C/C=C/C#CC(C)(C)C)Cc1cccc2ccccc12 [terbinafine] |  |  |  |  |  | growth inhibition in the presence of ketoconazole [1]: eliminate cell growth |
